Columns and labels:
[1] = Nucleation induction time measurement from supersaturated solution; type: physicochemical; settings: for Nucleation induction time / Time high (supersaturated) concentration maintained: 25 °C
Method: HPLC was analyzed using a Dionex-Ultimate 3000 HPLC (Dionex, Sunnyvale, CA, USA) equipped with an Inertsil ODS C18 (6.0 × 150 mm) column at 35 °C. […] The samples were analyzed by injecting 10 μL at 244 nm using a UV detector. […] The linearity was evaluated by linear regression analysis calculated using the least-squares regression method. […] The experiment was performed in triplicate (mean values + SD). Each polymer (chitosan and HPMC) was dissolved in an aqueous solution at a concentration of 500 μg/mL.

[2] = parameters: method as in a previous report; settings: absence of polymer; ref a previous report; cited from earlier work

In the case of `CC(C)c1nc(CN(C)C(=O)N[C@H](C(=O)N[C@@H](Cc2ccccc2)C[C@H](O)[C@H](Cc2ccccc2)NC(=O)OCc2cncs2)C(C)C)cs1` [RTV, ritonavir], the Nucleation induction time ([1]; HPMC solution 500 μg/mL) is reported as 32 h, the Nucleation induction time ([1]; absence of polymer (water)) is reported as 0.5 h and the Nucleation induction time ([1]; chitosan solution 500 μg/mL) is reported as 24 h. The “Time high (supersaturated) concentration maintained” value ([1]; chitosan solution 500 μg/mL) was 24 h, the “Time high (supersaturated) concentration maintained” value ([1]; water) was 0.5 h and the “Enhancement in induction time” value ([1]; with chitosan and HPMC versus no polymer) was 48–64 fold. The Induction time [2] was 120 min.
